From patent publication US20220202739A1, “ENDOCANNABINOID MIMETIC AND ANTI-INFLAMMATORY COMPOUND CONTAINING COMPOSITIONS, METHODS OF PREPARATION AND USES THEREOF” (priority 2019, published 2022)

Columns and labels:
NFKB1 = experiment: Gene expression custom microarray, human skin keratinocytes (Example 2): NFKB1; format: cell-based; details: 10 uM, 24 hr
Protocol: (§1) Cell cultures: A human skin keratinocyte cell culture (or cultures) is obtained through the ThermoFisher Scientific (Waltham, Mass.) or Promocell GmbH (Heidelberg, Germany). The initial culture was selected from one of the following, C055C, 3C0647, or
(§2) C12003. The cell lines were derived from donors as follows: C055C: Single donor adult 3C0647: Single donor adult, lightly pigmented C12003: Single donor adult
(§3) Culture media: Cells were grown in ready to use Keratinocyte Growth Medium 2 from Promocell GmbH (Heidelberg, Germany) containing basal media supplemented with Bovine Pituitary Extract 0.004 ml/ml, Epidermal Growth Factor (recombinant human) 0.125 ng/ml, Insulin (recombinant human) 5 μg/ml, Hydrocortisone 0.33 μg/ml, Epinephrine 0.39 μg/ml, Transferrin (recombinant human) 10 μg/ml, and CaCl2 0.06 mM. […] All cultures were incubated at 37° C. with 5% CO2 in a humidified chamber.
(§4) Experimental phase: The experimental phase was carried out in accordance with the protocol set forth in the experimental phase section of Example 1.
(§5) The genes tested: Tested genes were the same as tested in Example 1.
(§6) Performance of custom microarray: Performance of custom microarray was carried out in accordance with the protocol set forth in the performance of custom microarray section of Example 1. […]

MAGL = experiment: Gene expression custom microarray, human skin keratinocytes (Example 2): MAGL; format: cell-based; details: 10 uM, 24 hr
Protocol: as §1, §2, §3, §4, §5, §6

PPARG = experiment: Gene expression custom microarray, human skin keratinocytes (Example 2): PPARG; format: cell-based; details: 10 uM, 24 hr
Protocol: as §1, §2, §3, §4, §5, §6

FAAH = experiment: Gene expression custom microarray, human skin keratinocytes (Example 2): FAAH; format: cell-based; details: 10 uM, 24 hr
Protocol: as §1, §2, §3, §4, §5, §6

PTGS1 = experiment: Gene expression custom microarray, human skin keratinocytes (Example 2): PTGS1; format: cell-based; details: 10 uM, 24 hr
Protocol: as §1, §2, §3, §4, §5, §6

TRPV1 [1] = experiment: Gene expression custom microarray, human skin keratinocytes (Example 2): TRPV1; format: cell-based; details: 10 uM, 24 hr
Protocol: as §1, §2, §3, §4, §5, §6

CNR2 = details: human skin keratinocytes, 10 uM, 24 hr
Protocol: as §1, §2, §3, §4, §5, §6

CNR1 = details: human skin keratinocytes, 10 uM, 24 hr
Protocol: as §1, §2, §3, §4, §5, §6

TRPA1 = experiment: Gene expression custom microarray, human skin keratinocytes (Example 2): TRPA1; format: cell-based; details: 10 uM, 24 hr
Protocol: as §1, §2, §3, §4, §5, §6

IL1A = experiment: Gene expression custom microarray, human skin keratinocytes (Example 2): IL1A; format: cell-based; details: 10 uM, 24 hr
Protocol: as §1, §2, §3, §4, §5, §6

TRPM8 = experiment: Gene expression custom microarray, human skin keratinocytes (Example 2): TRPM8; format: cell-based; details: 10 uM, 24 hr
Protocol: as §1, §2, §3, §4, §5, §6

TRPV1 [2] = experiment: Gene expression custom microarray, human skin fibroblasts (Example 1): TRPV1; format: cell-based; details: 10 uM, 24 hr
Description: Cell cultures: A human skin fibroblast cell culture (or cultures) was obtained through the Coriell Cell Repository from the National Institute on Aging Cell Repository (Camden, N.J.), or Promocell GmbH (Heidelberg, Germany). The initial culture was selected from the following cell lines: AG13066, AG11557, AG11796 or GM03651E. The cell lines were derived from donors as follows:
Experimental phase: When the appropriate quantity of cells had been grown, they were detached as described above, but at the final step were seeded into each well of one or more 6 well dishes. Each well received 2 ml of the cell suspension so they were seeded equally. The dishes were returned to the incubator until 85-95% confluency was reached.
It is at this stage that all wells were rinsed in PBS after aspirating the growth media. The compound(s) to be tested were previously mixed into a suitable solvent (e.g., DMSO or ethanol) that can be diluted to the desired concentration of test compound (10 μl) in the culture wells without exceeding maximum solvent concentrations and adversely effecting cell viability, and mixed with basal media. NOTE: Standard maximum levels of solvent are 0.1% for DMSO and 0.5% for ETOH. The concentration of each test compound is found in Tables 1 & 2.
Every 2 wells on the 6 well plate served as a biological replicate for the purposes of RNA isolation and genetic expression evaluations making each 6 well dish an n=3 for the test compound(s) contained in the media. Negative control plates (no test compound(s) and only basal media) were also generated. The plates were returned to the incubator for 24 hrs.
At the end of the 24 hr time period, the plates were removed from the incubator, the test media aspirated, and the cells rinsed with PBS. RNA isolation is performed using the BioRad Aurum Total RNA Mini Kit (Hercules, Calif.) per manufacturer's protocol; which is described, in brief, below: • Add 350 μl of lysis buffer to each well. Pipet multiple times to ensure thorough lysis. Add lysed cells to the collection tube. • Add 350 μl of 70% ETOH to the collection tube and mix thoroughly. • Pipet the generated lysate onto the spin column placed in a new 2 ml tube. Centrifuge for 30 sec between 8,000 and 10,000 g. • Place the spin column containing the now bound RNA, in a new 2 ml tube. Add 700 μl of low stringency wash solution to the spin column. Centrifuge for 30 sec between 8,000 and 10,000 g. […] Allow 1 minute for saturation of the membrane and then centrifuge for 2 minutes to complete the RNA elution. • Quantify the quantity of RNA and store at −20 C° until use (no more than 1 month) […]

Structure (SMILES) | NFKB1↓ gene expression, fold increase or decrease vs untreated cells (NFKB1) [fold] | MAGL↓ gene expression, fold increase or decrease vs untreated cells (MAGL) [fold] | PPARG↑ gene expression, fold increase or decrease vs untreated cells (PPARG) [fold] | FAAH↓ gene expression, fold increase or decrease vs untreated cells (FAAH) [fold] | PTGS1↓ gene expression, fold increase or decrease vs untreated cells (PTGS1) [fold] | TRPV1↑ gene expression, fold increase or decrease vs untreated cells (TRPV1 [1]) [fold] | CNR2↑ gene expression, fold increase or decrease vs untreated cells (CNR2) [fold] | CNR1↑ gene expression, fold increase or decrease vs untreated cells (CNR1) [fold] | TRPA1↑ gene expression, fold increase or decrease vs untreated cells (TRPA1) [fold] | IL1A↓ gene expression, fold increase or decrease vs untreated cells (IL1A) [fold] | TRPM8↑ gene expression, fold increase or decrease vs untreated cells (TRPM8) [fold] | TRPV1↑ gene expression, fold increase or decrease vs untreated cells (TRPV1 [2]) [fold]
C=C(C)[C@@H]1CCC(C)=C[C@H]1c1c(O)cc(CCCCC)cc1O [CBD, cannabidiol, reference compound] | −1.3 | −2.3 | −4.7 | −3.1 | 2.3 | 2.2 | 0 | 2.6 | −1.7 | −1.8 | 2.5 | 
CCCCCCCCCCCCCCCC(=O)NCCO [N-palmitoylethanolamide] |  |  |  |  |  |  |  |  |  |  |  | −3.2
